Data: ChEMBL document CHEMBL3885861, “Open TG-GATES”

Organism: Rattus norvegicus
Assay: Open TG-GATES - Regimen: Single
Assay type: toxicity, organism-based, Sprague-Dawley
Parameters: regimen Single, gender Male, age 6 weeks
Settings: in vivo, po, 30 mg/kg, route gavage, dose level Low; for APTT / Bas / Eos / Fbg / Hb / Ht / Lym / MCH / MCHC / MCV / Mono / Neu / PT / Plat / RBC / Ret / WBC: tissue Blood; for ALP / ALT / AST / BUN / CRE / DBIL / GLC / IP / K / Na / PL / RALB / TBIL / TC / TG / TP / gamma-GTP: tissue Plasma

## NS(=O)(=O)c1cc(C(=O)O)c(NCc2ccco2)cc1Cl [FUROSEMIDE]
3 h
  TERMINAL_BW: 201.3 g
  APTT: 18.1 s
  Bas: 0%
  Eos: 1%
  Fbg: 278.8 mg/dL
  Hb: 14 g/dL
  Ht: 41.6%
  Lym: 74.2%
  MCH: 21.2 pg
  MCHC: 33.6%
  MCV: 63.2 fL
  Mono: 4.4%
  Neu: 19.6%
  PT: 15.4 s
  Plat: 117.4 x10_4/uL
  RBC: 658.6 x10_4/ul
  Ret: 7.9%
  WBC: 68.2 x10_2/uL
  ALP: 1468.8 IU/L
  ALT: 46 IU/L
  AST: 77 IU/L
  BUN: 15.4 mg/dL
  CRE: 0.2 mg/dL
  DBIL: 0.01 mg/dL
  GLC: 179.2 mg/dL
  IP: 10.5 mg/dL
  K: 3.7 meq/L
  Na: 141.6 meq/L
  PL: 149.8 mg/dL
  RALB: 2.8 g/dL
  TBIL: 0.058 mg/dL
  TC: 79.4 mg/dL
  TG: 63.6 mg/dL
  TP: 5.9 g/dL
  gamma-GTP: 1 IU/L
6 h
  TERMINAL_BW: 199.3 g
  APTT: 17.5 s
  Bas: 0%
  Eos: 1%
  Fbg: 324.6 mg/dL
  Hb: 14.1 g/dL
  Ht: 41.9%
  Lym: 74.4%
  MCH: 21.6 pg
  MCHC: 33.7%
  MCV: 64 fL
  Mono: 3.8%
  Neu: 20%
  PT: 15.2 s
  Plat: 124.8 x10_4/uL
  RBC: 655.4 x10_4/ul
  Ret: 7.9%
  WBC: 92.3 x10_2/uL
  ALP: 1320.8 IU/L
  ALT: 45.6 IU/L
  AST: 74.6 IU/L
  BUN: 17.8 mg/dL
  CRE: 0.2 mg/dL
  DBIL: 0.016 mg/dL
  GLC: 181.2 mg/dL
  IP: 10.4 mg/dL
  K: 3.6 meq/L
  Na: 141 meq/L
  PL: 156.2 mg/dL
  RALB: 2.9 g/dL
  TBIL: 0.074 mg/dL
  TC: 88.2 mg/dL
  TG: 44.2 mg/dL
  TP: 6.1 g/dL
  gamma-GTP: 1 IU/L
9 h
  TERMINAL_BW: 199.5 g
  APTT: 17.3 s
  Bas: 0%
  Eos: 1%
  Fbg: 310.2 mg/dL
  Hb: 14 g/dL
  Ht: 41.4%
  Lym: 73%
  MCH: 21.5 pg
  MCHC: 33.8%
  MCV: 63.8 fL
  Mono: 3.2%
  Neu: 22%
  PT: 15.4 s
  Plat: 118.1 x10_4/uL
  RBC: 649.2 x10_4/ul
  Ret: 8.1%
  WBC: 89.5 x10_2/uL
  ALP: 1152.2 IU/L
  ALT: 38.6 IU/L
  AST: 68.6 IU/L
  BUN: 16.4 mg/dL
  CRE: 0.2 mg/dL
  DBIL: 0.01 mg/dL
  GLC: 181.4 mg/dL
  IP: 10.7 mg/dL
  K: 3.7 meq/L
  Na: 143 meq/L
  PL: 147.4 mg/dL
  RALB: 2.7 g/dL
  TBIL: 0.072 mg/dL
  TC: 81 mg/dL
  TG: 38 mg/dL
  TP: 5.8 g/dL
  gamma-GTP: 0.8 IU/L
24 h
  TERMINAL_BW: 224.4 g
  APTT: 17.3 s
  Bas: 0.2%
  Eos: 1%
  Fbg: 267 mg/dL
  Hb: 13.3 g/dL
  Ht: 39.7%
  Lym: 78.6%
  MCH: 21.8 pg
  MCHC: 33.5%
  MCV: 65.1 fL
  Mono: 2.8%
  Neu: 16.4%
  PT: 15.8 s
  Plat: 118.7 x10_4/uL
  RBC: 610 x10_4/ul
  Ret: 7.4%
  WBC: 96 x10_2/uL
  ALP: 1538.8 IU/L
  ALT: 44.6 IU/L
  AST: 73.6 IU/L
  BUN: 16 mg/dL
  CRE: 0.2 mg/dL
  DBIL: 0.01 mg/dL
  GLC: 183.4 mg/dL
  IP: 7.7 mg/dL
  K: 4 meq/L
  Na: 142.6 meq/L
  PL: 147.8 mg/dL
  RALB: 2.6 g/dL
  TBIL: 0.052 mg/dL
  TC: 81.8 mg/dL
  TG: 60.8 mg/dL
  TP: 5.6 g/dL
  gamma-GTP: 0.8 IU/L
